Data as given in ChEMBL document CHEMBL1287745, “AdoHcy hydrolase of Trichomonas vaginalis: studies of the effects of 5'-modified adenosine analogues and related 6-N-cyclopropyl derivatives” (Bioorg Med Chem Lett, 2010).
In brackets after ≈: the same amount, converted by molar mass. Several values for one entry are separate records, joined by “and”; a condition that tells them apart may be missing. Equal entries are not always repeated.

How the values were obtained:
Trichomonas vaginalis [1] = experiment: Antiparasitic activity against Trichomonas vaginalis T1 at […] after 24 hrs by hemocytometric analysis; type: functional
Trichomonas vaginalis [2] = experiment: […] activity against Trichomonas vaginalis T1; type: functional, organism-based
Trypanosoma = experiment: Antimicrobial activity against Trypanosoma; type: functional, organism-based
[3] = Trichomonas vaginalis, T1, read-out: IC50

In the case of `Nc1ncnc2c1ncn2[C@@H]1O[C@H](C=NO)[C@@H](O)[C@H]1O`, the “growth inhibition (GI)” value (Trichomonas vaginalis [1]) is reported as 93% and the IC50 (Trichomonas vaginalis [2]; [3]) is reported as 40 µM and 11 µg/mL.

`Nc1ncnc2c1ncn2[C@@H]1C[C@H](C(=O)O)[C@@H](O)[C@H]1O` was tested, and the “growth inhibition (GI)” value (Trichomonas vaginalis [1]) was 36%.

With `Nc1ncnc2c1ncn2CCC(O)CO` (stereo not given) the “growth inhibition (GI)” value (Trichomonas vaginalis [1]) was 11%.

In the case of `O[C@@H]1[C@H](O)[C@@H](C=CI)O[C@H]1n1cnc2c(NC3CC3)ncnc21`, the “growth inhibition (GI)” value (Trichomonas vaginalis [1]) is reported as 24%, the IC50 (Trichomonas vaginalis [2]) is reported as “Not Active” and the IC50 (Trypanosoma; Trypanosoma, read-out: IC50) is reported as 12 µg/mL (≈ 28 µM).

In the case of `O[C@@H]1[C@H](O)[C@@H](C=CF)O[C@H]1n1cnc2c(NC3CC3)ncnc21`, the “growth inhibition (GI)” value (Trichomonas vaginalis [1]) is reported as 10% and the IC50 (Trypanosoma; Trypanosoma, read-out: IC50) is reported as 19 µg/mL (≈ 59.1 µM).

With `Nc1ncnc2c1ncn2[C@@H]1O[C@H](/C=C/C#CI)[C@@H](O)[C@H]1O` the “growth inhibition (GI)” value (Trichomonas vaginalis [1]) was 34%.

With `ON=C[C@H]1O[C@@H](n2cnc3c(NC4CC4)ncnc32)[C@H](O)[C@@H]1O` the “growth inhibition (GI)” value (Trichomonas vaginalis [1]) was 41% and the IC50 (Trypanosoma) was “Not Active”.

In the case of `COC(=O)[C@H]1O[C@@H](n2cnc3c(N)ncnc32)[C@H](O)[C@@H]1O`, the “growth inhibition (GI)” value (Trichomonas vaginalis [1]) is reported as 4%.

For `Nc1ncnc2c1ncn2[C@@H]1O[C@H](/C=C\I)[C@@H](O)[C@H]1O`, the “growth inhibition (GI)” value (Trichomonas vaginalis [1]) was 81% and the IC50 (Trichomonas vaginalis [2]; [3]) was 76 µM and 24 µg/mL.

For `O[C@@H]1[C@H](O)[C@@H](C=C(Br)Br)O[C@H]1n1cnc2c(NC3CC3)ncnc21`, the “growth inhibition (GI)” value (Trichomonas vaginalis [1]) was 12% and the IC50 (Trypanosoma) was “Not Active”.

With `Nc1ncnc2c1ncn2[C@@H]1O[C@H](/C=C/I)[C@@H](O)[C@H]1O` the “growth inhibition (GI)” value (Trichomonas vaginalis [1]) was 85% and the IC50 (Trichomonas vaginalis [2]; [3]) was 60 µM and 19 µg/mL.

For `COC(=O)C(O)CCn1cnc2c(N)ncnc21` (stereo not given), the “growth inhibition (GI)” value (Trichomonas vaginalis [1]) was 16%.

`Nc1ncnc2c1ncn2[C@@H]1O[C@H](/C=C/CCCC(=O)O)[C@@H](O)[C@H]1O` was tested, and the “growth inhibition (GI)” value (Trichomonas vaginalis [1]) was 22%.

With `Nc1ncnc2c1ncn2[C@@H]1O[C@H](C(=O)O)[C@@H](O)[C@H]1O` [5'-CARBOXY ADENOSINE] the “growth inhibition (GI)” value (Trichomonas vaginalis [1]) was 17%.

`Nc1ncnc2c1ncn2[C@@H]1C[C@H](CO)[C@@H](O)[C@H]1O` [ARISTEROMYCIN] was tested, and the “growth inhibition (GI)” value (Trichomonas vaginalis [1]) was 95% and the IC50 (Trichomonas vaginalis [2]; [3]) was 10 µM and 3 µg/mL.

`Cc1ncc([N+](=O)[O-])n1CCO` [METRONIDAZOLE] showed an IC50 (Trichomonas vaginalis [2]; [3]) of 0.12 µg/mL (≈ 0.701 µM).
